Laboratory results published in patent US11357748B2, “Methods for treating mendelian disorders of the epigenetic machinery” (THE JOHNS HOPKINS UNIVERSITY, priority 2014, dated 2022).

Tested on: Kmt2d+/βGeo mice
Experiment: Morris water maze (hippocampal memory) in the Kmt2d+/βGeo mouse model of Kabuki syndrome
Assay type: in vivo
Settings: 10 mg/kg/day
From the text: Kmt2d^+/βGeo mice, also named Mll2Gt^(RRt024) Byg, were acquired from Bay Genomics (University of California). All experimental mice were on a mixed C57BL/6J and 129/SvEv background. Expected Mendelian ratios were observed when heterozygous animals were bred to wild-type. In heterozygous crosses, however, there was uniform embryonic lethality of homozygotes by ED 12, the earliest developmental stage assayed. For treatment with AR-42, mice were orally gavaged daily with drug (Selleck Chemicals, Houston, Tex.) solubilized in vehicle (0.5% methylcellulose, 0.1% Tween-80, water) or with vehicle alone. Drug delivery information was kindly provided by Drs. Chen and Kulp from Ohio State University (Huang et al. (2011) Mol. Pharmacol. 79:197-20619). Drug was administered for 14 days and mice were sacrificed on day 15. Morris water maze testing was initiated at day 7 and a dose of 10 mg/kg/day was used for these studies. For quantification of DCX positive cells, doses of 0, 5, 10 and 25 mg/kg/day were used. Genotyping was performed using primers B-GeoF-([…]; SEQ ID NO: 1) and B-GeoR-([…]; SEQ ID NO: 2) that are specific for the targeted allele and TcrdF-([…]; SEQ ID NO: 3) and TcrdR-([…]; SEQ ID NO: 4) that control for sufficient DNA concentration. Real-time PCR using the same primers allows discrimination between the heterozygous and homozygous state for the targeted allele. Maxillary protrusion was evaluated by ten investigators blinded to genotype and they were asked to rate maxillary protrusion on radiographs as either large (2) or small (1). […] All experiments were performed using mouse protocols approved by the Animal Care and Use Committee of Johns Hopkins University School of Medicine. The mouse protocols used for this study are in accordance with the guidelines used by the NIH for mouse care and handling.
Mice were placed in a 1.1 meter diameter tank filled with room temperature water dyed with non-toxic white paint. For analysis purposes, the tank was divided into four quadrants, with one quadrant containing a small platform submerged 1.5 cm beneath the water. On each day of training, mice were placed in the tank in a random quadrant facing away from the center and were allowed to swim until they found the platform and were left there for 30 seconds. […] Each mouse was given 4 trials per day (for 5 days) with no inter-trial interval and subsequently returned to its home cage. Latency to reach the platform was measured during each trial. The day after the final day of training, the platform was removed for a probe trial where mice were placed in the tank for 90 s. Average number of crossings of the platform's previous location was recorded. Visible/flagged platform training was also performed for 3 days either before the hidden platform or after the probe trial, where a visible flag was placed on the submerged platform, and the time for each mouse to reach the platform was measured for each 60 second trial, four of which were run in the same way as the hidden platform training. For all training and probe testing, data was recorded both manually and electronically with ANY-maze software (San Diego Instruments, San Diego, Calif.) when applicable. All data were collected and analyzed by an individual blinded to genotype and treatment group. Differences in the number of platform crossings during the probe trial were compared between groups with a Student's t-test with significance value set at P<0.05.

Compound: CC(C)[C@H](C(=O)Nc1ccc(C(=O)NO)cc1)c1ccccc1 [AR-42, (S)—N-hydroxy-4-(3-methyl-2-phenylbutanamido)benzamide]
- functional studies outcome by dose: most improvement in functional studies
- escape latency during training, Kmt2d+/βGeo vs Kmt2d+/+ both on drug (FIG. 12B): No significant difference is observed
- escape latency during training, Kmt2d+/βGeo animals with vs without drug (FIG. 12D): No significant difference is observed
- frequency of platform crossing during probe trial, Kmt2d+/βGeo mice (FIG. 25F): normalized
- escape latency during training, Kmt2d+/+ animals with vs without drug (P<0.01, FIG. 12C): significant difference
- platform crossing during probe trial, both Kmt2d+/+ and Kmt2d+/βGeo mice (greater response in Kmt2d+/βGeo, FIG. 25F): improved performance
